Measurements taken from US20260174757A1, “COMPOSITIONS AND METHODS FOR TREATING PULMONARY ARTERIAL HYPERTENSION” (Inhibikase Therapeutics, Inc., priority 2024, published 2026).
Counter-ions that a name gives are not always drawn. Like-named read-outs stand apart in the source and are kept apart here.

What was measured:
[1] = Comparative toxicology in non-human primate (NOAEL); details: cynomolgus macaque, in vivo; 28-day GLP toxicology study in cynomolgus macaques; read-out: No Adverse Effect Level (NOAEL)
Text: The compound of formula (I) was originally developed to address on-dosing side effects of imatinib therapy. In particular, up to 50% of imatinib patients experience persistent Grade 2 or less gastrointestinal (GI) adverse events during treatment for blood or stomach cancers, and during the previous imatinib trials, up to ⅓ of participants experienced these GI events including 3% of participants experiencing SAEs due to GI disturbance. The compound of formula (I) was developed specifically to reduce these events with the expectations that improvement in other off-target or unintended side effects of this therapy could follow. To illustrate the potential of the compound of formula (I) to minimize GI disturbance, the compound was evaluated in comparative toxicology experiments in non-human primate (NHP).

[2] = human, in vivo
Text: Additionally, the clinical pharmacokinetics for each cohort of healthy subjects studied for the compound of formula (I) using the designs were summarized.

[3] = imatinib mesylate in NHP, Q.D.; from NDA 21-335; cited from earlier work
[4] = steady state, Day 91, NOAEL 15 mg/kg, from NDA 21-335, cited from earlier work

Structure (SMILES): CCC(C)OC(=O)OC[N+]1(C)CCN(Cc2ccc(C(=O)Nc3ccc(C)c(Nc4nccc(-c5cccnc5)n4)c3)cc2)CC1 (stereo not shown) [IkT-001Pro]
- NOAEL at 28 day [1]: 75 mg/kg
- dose dependence of single dose Cmax and AUC0-inf [2]: increased linearly with dose
- AUC0-last ([2]; 300 mg): 17820 ng·h/mL
- CL/F ([2]; 300 mg): 14.03 L/h
- Cmax ([2]; 300 mg): 926.1 ng/mL
- Tmax ([2]; 300 mg): 5.33 h
- Vz/F ([2]; 300 mg): 331.4 L
- AUC0-last ([2]; 400 mg): 30100 ng·h/mL
- CL/F ([2]; 400 mg): 10.82 L/h
- Cmax ([2]; 400 mg): 1563 ng/mL
- Tmax ([2]; 400 mg): 5.75 h
- Vz/F ([2]; 400 mg): 247.5 L
- AUC0-last ([2]; 500 mg): 38440 ng·h/mL
- CL/F ([2]; 500 mg): 11.29 L/h
- Cmax ([2]; 500 mg): 1836 ng/mL
- Tmax ([2]; 500 mg): 5.75 h
- Vz/F ([2]; 500 mg): 303.8 L
- AUC0-inf LSM (plasma imatinib) ([2]; 600 mg): 41202.597
- AUC0-last LSM (plasma imatinib) ([2]; 600 mg): 40456.384
- Cmax LSM (plasma imatinib) ([2]; 600 mg): 1939.51
- AUC0-inf LSM ([2]; 800 mg): 50840.298
- AUC0-last ([2]; 800 mg): 51430 ng·h/mL
- AUC0-last LSM ([2]; 800 mg): 50220.802
- CL/F ([2]; 800 mg): 12.8 L/h
- Cmax ([2]; 800 mg): 2467 ng/mL
- Cmax LSM ([2]; 800 mg): 2409.131
- Tmax ([2]; 800 mg): 5.5 h
- Vz/F ([2]; 800 mg): 272 L

Structure (SMILES): Cc1ccc(NC(=O)c2ccc(CN3CCN(C)CC3)cc2)cc1Nc1nccc(-c2cccnc2)n1 [Imatinib mesylate, imatinib mesylate]
- No Adverse Effect Level (NOAEL) [3]: 15 mg/kg
- AUC0-last (mean) ([4]; female): 1960 ng·h/mL
- AUC0-last (mean) ([4]; male): 1540 ng·h/mL
